Data published in ChEMBL document CHEMBL2034855, “(18)F-labeled phenyldiazenyl benzothiazole for in vivo imaging of neurofibrillary tangles in Alzheimer's disease brains” (ACS Med Chem Lett, 2012).
Blank lines part the entries; values can stand above or below the compound they belong to. Active and inactive are the calls of the source. No cut-off for these calls is given here.

Tests used:
[1] = target: T1, Microtubule-associated protein tau (Homo sapiens, UniProt P10636); assay: Displacement of Thioflavin S from recombinant human tau expressed in Escherichia coli after 30 mins by fluorescence assay
[2] = species: Homo sapiens; assay: Selectivity ratio Ki for amyloid beta (1 to 42) aggregates to Ki for recombinant human tau
[3] = species: Homo sapiens; assay: Binding affinity to neurofibrillary tangles in human alzheimer's disease patient brain at 92.5 kBq after 30 mins by immunohistological staining
[4] = target: T1, Microtubule-associated protein tau; assay: Binding affinity to recombinant human tau expressed in Escherichia coli assessed per nanomolar of protein after 30 mins by fluorescence assay; conditions: tested as the 18F-labelled form
[5] = target: T1, Microtubule-associated protein tau; assay: Binding affinity to tau protein in human alzheimer's disease patient brain white matter at 92.5 kBq after 2 hrs by immunohistological staining; format: tissue-based; conditions: tested as the 18F-labelled form
[6] = Binding affinity to amyloid beta (1 to 42) aggregates assessed per nanomolar of protein after 30 mins by fluorescence assay; conditions: tested as the 18F-labelled form
[7] = target: Amyloid-beta precursor protein (Homo sapiens) (UniProt P05067); assay: Binding affinity to amyloid beta (1 to 42) aggregates in human alzheimer's disease patient brain white matter at 92.5 kBq after 2 hrs by immunohistological staining; format: tissue-based; conditions: tested as the 18F-labelled form
[8] = species: Homo sapiens; assay: Binding affinity to senile plaques in human alzheimer's disease patient brain at 92.5 kBq after 30 mins by immunohistological staining
[9] = Displacement of Thioflavin S from amyloid beta (1 to 42) aggregates after 30 mins by fluorescence assay
[10] = system: Brain; assay: Biodistribution in mouse brain at 64.5 kBq, iv measured 60 mins post injection by gamma counting; format: ADME, organism-based; conditions: in vivo, 1 h
[11] = Octanol-phosphate buffer partition coefficient, log P of the compound at 0.37 MBq after 10 mins by gamma counting; format: physicochemical
[12] = system: Brain; assay: Biodistribution in mouse brain at 64.5 kBq, iv measured 2 mins post injection by gamma counting; format: ADME, organism-based; conditions: in vivo
[13] = system: Stomach; assay: Biodistribution in mouse stomach at 64.5 kBq, iv measured 10 mins post injection by gamma counting; format: ADME, organism-based; conditions: in vivo
[14] = system: Liver; assay: Biodistribution in mouse liver at 64.5 kBq, iv measured 10 mins post injection by gamma counting; format: ADME, organism-based; conditions: in vivo
[15] = system: Lung; assay: Biodistribution in mouse lung at 64.5 kBq, iv measured 30 mins post injection by gamma counting; format: ADME, organism-based; conditions: in vivo, 0.5 h
[16] = system: Blood; assay: Biodistribution in mouse blood at 64.5 kBq, iv measured 10 mins post injection by gamma counting; format: ADME, organism-based; conditions: in vivo
[17] = target: T1, Microtubule-associated protein tau; assay: Binding affinity to recombinant human tau expressed in Escherichia coli after 30 mins by fluorescence assay
[18] = system: Liver; assay: Biodistribution in mouse liver at 64.5 kBq, iv measured 2 mins post injection by gamma counting; format: ADME, organism-based; conditions: in vivo
[19] = system: Lung; assay: Biodistribution in mouse lung at 64.5 kBq, iv measured 60 mins post injection by gamma counting; format: ADME, organism-based; conditions: in vivo, 1 h
[20] = system: Bone; assay: Biodistribution in mouse bone at 64.5 kBq, iv measured 60 mins post injection by gamma counting; format: ADME, organism-based, Bone element; conditions: in vivo, 1 h
[21] = system: Brain; assay: Drug uptake in normal human brain at 92.5 kBq after 2 hrs by […]; format: ADME, tissue-based
[22] = system: Lung; assay: Biodistribution in mouse lung at 64.5 kBq, iv measured 2 mins post injection by gamma counting; format: ADME, organism-based; conditions: in vivo
[23] = system: Kidney; assay: Biodistribution in mouse kidney at 64.5 kBq, iv measured 30 mins post injection by gamma counting; format: ADME, organism-based; conditions: in vivo, 0.5 h
[24] = system: Bone; assay: Biodistribution in mouse bone at 64.5 kBq, iv measured 30 mins post injection by gamma counting; format: ADME, organism-based, Bone element; conditions: in vivo, 0.5 h
[25] = system: Pancreas; assay: Biodistribution in mouse pancreas at 64.5 kBq, iv measured 10 mins post injection by gamma counting; format: ADME, organism-based; conditions: in vivo
[26] = system: Stomach; assay: Biodistribution in mouse stomach at 64.5 kBq, iv measured 2 mins post injection by gamma counting; format: ADME, organism-based; conditions: in vivo
[27] = system: Blood; assay: Biodistribution in mouse blood at 64.5 kBq, iv measured 30 mins post injection by gamma counting; format: ADME, organism-based; conditions: in vivo, 0.5 h
[28] = system: Bone; assay: Biodistribution in mouse bone at 64.5 kBq, iv measured 2 mins post injection by gamma counting; format: ADME, organism-based, Bone element; conditions: in vivo
[29] = system: Kidney; assay: Biodistribution in mouse kidney at 64.5 kBq, iv measured 2 mins post injection by gamma counting; format: ADME, organism-based; conditions: in vivo
[30] = system: Spleen; assay: Biodistribution in mouse spleen at 64.5 kBq, iv measured 60 mins post injection by gamma counting; format: ADME, organism-based; conditions: in vivo, 1 h
[31] = system: Intestine; assay: Biodistribution in mouse intestine at 64.5 kBq, iv measured 10 mins post injection by gamma counting; format: ADME, organism-based; conditions: in vivo
[32] = system: Spleen; assay: Biodistribution in mouse spleen at 64.5 kBq, iv measured 2 mins post injection by gamma counting; format: ADME, organism-based; conditions: in vivo
[33] = system: Brain; assay: Biodistribution in mouse brain at 64.5 kBq, iv measured 30 mins post injection by gamma counting; format: ADME, organism-based; conditions: in vivo, 0.5 h
[34] = system: Pancreas; assay: Biodistribution in mouse pancreas at 64.5 kBq, iv measured 2 mins post injection by gamma counting; format: ADME, organism-based; conditions: in vivo
[35] = system: Lung; assay: Biodistribution in mouse lung at 64.5 kBq, iv measured 10 mins post injection by gamma counting; format: ADME, organism-based; conditions: in vivo
[36] = system: Stomach; assay: Biodistribution in mouse stomach at 64.5 kBq, iv measured 30 mins post injection by gamma counting; format: ADME, organism-based; conditions: in vivo, 0.5 h
[37] = system: Brain; assay: Biodistribution in mouse brain at 64.5 kBq, iv measured 10 mins post injection by gamma counting; format: ADME, organism-based; conditions: in vivo
[38] = system: Heart; assay: Biodistribution in mouse heart at 64.5 kBq, iv measured 10 mins post injection by gamma counting; format: ADME, organism-based; conditions: in vivo
[39] = system: Pancreas; assay: Biodistribution in mouse pancreas at 64.5 kBq, iv measured 30 mins post injection by gamma counting; format: ADME, organism-based; conditions: in vivo, 0.5 h
[40] = system: Liver; assay: Biodistribution in mouse liver at 64.5 kBq, iv measured 30 mins post injection by gamma counting; format: ADME, organism-based; conditions: in vivo, 0.5 h
[41] = system: Kidney; assay: Biodistribution in mouse kidney at 64.5 kBq, iv measured 10 mins post injection by gamma counting; format: ADME, organism-based; conditions: in vivo
[42] = system: Stomach; assay: Biodistribution in mouse stomach at 64.5 kBq, iv measured 60 mins post injection by gamma counting; format: ADME, organism-based; conditions: in vivo, 1 h
[43] = system: Intestine; assay: Biodistribution in mouse intestine at 64.5 kBq, iv measured 60 mins post injection by gamma counting; format: ADME, organism-based; conditions: in vivo, 1 h
[44] = system: Kidney; assay: Biodistribution in mouse kidney at 64.5 kBq, iv measured 60 mins post injection by gamma counting; format: ADME, organism-based; conditions: in vivo, 1 h
[45] = system: Heart; assay: Biodistribution in mouse heart at 64.5 kBq, iv measured 2 mins post injection by gamma counting; format: ADME, organism-based; conditions: in vivo
[46] = system: Heart; assay: Biodistribution in mouse heart at 64.5 kBq, iv measured 30 mins post injection by gamma counting; format: ADME, organism-based; conditions: in vivo, 0.5 h
[47] = system: Spleen; assay: Biodistribution in mouse spleen at 64.5 kBq, iv measured 30 mins post injection by gamma counting; format: ADME, organism-based; conditions: in vivo, 0.5 h
[48] = system: Blood; assay: Biodistribution in mouse blood at 64.5 kBq, iv measured 60 mins post injection by gamma counting; format: ADME, organism-based; conditions: in vivo, 1 h
[49] = system: Pancreas; assay: Biodistribution in mouse pancreas at 64.5 kBq, iv measured 60 mins post injection by gamma counting; format: ADME, organism-based; conditions: in vivo, 1 h
[50] = system: Intestine; assay: Biodistribution in mouse intestine at 64.5 kBq, iv measured 2 mins post injection by gamma counting; format: ADME, organism-based; conditions: in vivo
[51] = system: Blood; assay: Biodistribution in mouse blood at 64.5 kBq, iv measured 2 mins post injection by gamma counting; format: ADME, organism-based; conditions: in vivo
[52] = system: Liver; assay: Biodistribution in mouse liver at 64.5 kBq, iv measured 60 mins post injection by gamma counting; format: ADME, organism-based; conditions: in vivo, 1 h
[53] = Binding affinity to amyloid beta (1 to 42) aggregates after 30 mins by fluorescence assay
[54] = system: Spleen; assay: Biodistribution in mouse spleen at 64.5 kBq, iv measured 10 mins post injection by gamma counting; format: ADME, organism-based; conditions: in vivo
[55] = system: Heart; assay: Biodistribution in mouse heart at 64.5 kBq, iv measured 60 mins post injection by gamma counting; format: ADME, organism-based; conditions: in vivo, 1 h
[56] = system: Intestine; assay: Biodistribution in mouse intestine at 64.5 kBq, iv measured 30 mins post injection by gamma counting; format: ADME, organism-based; conditions: in vivo, 0.5 h
[57] = system: Bone; assay: Biodistribution in mouse bone at 64.5 kBq, iv measured 10 mins post injection by gamma counting; format: ADME, organism-based, Bone element; conditions: in vivo

T1 sequence (P10636 whole entry): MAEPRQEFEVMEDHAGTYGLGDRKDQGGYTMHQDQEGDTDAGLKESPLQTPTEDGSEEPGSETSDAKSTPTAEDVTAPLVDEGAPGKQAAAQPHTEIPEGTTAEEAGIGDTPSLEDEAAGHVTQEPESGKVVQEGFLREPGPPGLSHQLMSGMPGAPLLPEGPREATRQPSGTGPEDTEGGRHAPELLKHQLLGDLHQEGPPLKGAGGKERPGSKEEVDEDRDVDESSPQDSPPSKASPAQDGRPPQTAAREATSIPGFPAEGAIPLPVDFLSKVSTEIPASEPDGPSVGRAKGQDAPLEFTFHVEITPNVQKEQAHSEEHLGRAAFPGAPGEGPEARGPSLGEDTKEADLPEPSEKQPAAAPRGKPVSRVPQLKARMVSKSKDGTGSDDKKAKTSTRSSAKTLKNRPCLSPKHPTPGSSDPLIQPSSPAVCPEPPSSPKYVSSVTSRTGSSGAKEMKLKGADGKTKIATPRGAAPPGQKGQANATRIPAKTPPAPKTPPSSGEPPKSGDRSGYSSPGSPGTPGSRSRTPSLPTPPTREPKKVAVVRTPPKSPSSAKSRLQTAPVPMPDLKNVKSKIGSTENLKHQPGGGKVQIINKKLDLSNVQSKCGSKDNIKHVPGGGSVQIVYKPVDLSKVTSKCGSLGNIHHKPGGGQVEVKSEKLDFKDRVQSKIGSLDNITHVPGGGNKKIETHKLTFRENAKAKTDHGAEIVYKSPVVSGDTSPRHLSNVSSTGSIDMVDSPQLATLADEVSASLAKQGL
Sequence of Amyloid-beta precursor protein (Homo sapiens) (P05067 whole entry): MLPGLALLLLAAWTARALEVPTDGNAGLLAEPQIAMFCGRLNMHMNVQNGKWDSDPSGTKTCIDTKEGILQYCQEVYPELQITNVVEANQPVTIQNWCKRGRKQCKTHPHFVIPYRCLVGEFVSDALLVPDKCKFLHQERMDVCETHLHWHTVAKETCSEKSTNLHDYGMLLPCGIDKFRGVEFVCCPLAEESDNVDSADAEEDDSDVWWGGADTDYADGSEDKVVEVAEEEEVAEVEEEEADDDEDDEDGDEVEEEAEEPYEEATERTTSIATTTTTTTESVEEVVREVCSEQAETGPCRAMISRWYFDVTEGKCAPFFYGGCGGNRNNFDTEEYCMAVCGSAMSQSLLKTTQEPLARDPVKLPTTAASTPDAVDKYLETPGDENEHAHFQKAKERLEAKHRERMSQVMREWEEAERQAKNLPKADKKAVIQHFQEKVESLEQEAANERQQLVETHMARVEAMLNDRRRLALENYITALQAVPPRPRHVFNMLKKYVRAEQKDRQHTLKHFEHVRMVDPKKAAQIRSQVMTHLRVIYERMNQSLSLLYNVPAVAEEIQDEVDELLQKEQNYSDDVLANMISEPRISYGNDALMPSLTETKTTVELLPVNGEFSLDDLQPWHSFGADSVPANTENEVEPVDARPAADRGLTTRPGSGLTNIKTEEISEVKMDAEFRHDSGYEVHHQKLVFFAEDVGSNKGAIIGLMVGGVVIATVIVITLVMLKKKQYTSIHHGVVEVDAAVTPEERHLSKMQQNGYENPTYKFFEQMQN

- Ki [1]: 0.48 nM
- Ratio Ki [2]: 17.2
Compound: CN(C)c1ccc(/N=N/c2nc3ccc(I)cc3s2)cc1

- Activity [3]: Active
- Bmax [4]: 45.8 pmol
- Activity [5]: Active
- Bmax [6]: 38.9 pmol
- IC50 [1]: 256 nM
- Ki [1]: 13 nM
- Activity [7]: Active
- Ratio Ki [2]: 1.54
- Activity [8]: Active
- IC50 [9]: 47.3 nM
- Ki [9]: 20 nM
Compound: CN(C)c1ccc(/N=N/c2nc3ccc(OCCOCCOCCF)cc3s2)cc1

- Drug uptake [10]: 2.89 % ID/g
- logP at 10 min [11]: 3.84
- Drug uptake [12]: 0.94 % ID/g
Compound: CN(C)c1ccc(/N=N/c2nc3ccc([125I])cc3s2)cc1

- Drug uptake [10]: 2.53 % ID/g
- Drug uptake [13]: 1.42 %ID
- Drug uptake [14]: 19.3 % ID/g
- Drug uptake [15]: 3.36 % ID/g
- Drug uptake [16]: 1.83 % ID/g
- Kd [17]: 44.8 nM
- Drug uptake [18]: 20.2 % ID/g
- Drug uptake [19]: 3.59 % ID/g
- Drug uptake [20]: 1.92 % ID/g
- Drug uptake [21]: Not Active
- Drug uptake [22]: 13.5 % ID/g
- Drug uptake [23]: 5.08 % ID/g
- Drug uptake [24]: 1.82 % ID/g
- Drug uptake [25]: 4.01 % ID/g
- Drug uptake [26]: 1.11 %ID
- Drug uptake [27]: 2.19 % ID/g
- Drug uptake [28]: 1.88 % ID/g
- Drug uptake [29]: 13.9 % ID/g
- Drug uptake [30]: 2.14 % ID/g
- logP at 10 min [11]: 2.05
- Drug uptake [31]: 4.99 % ID/g
- Drug uptake [12]: 4.28 % ID/g
- Drug uptake [32]: 3.47 % ID/g
- Drug uptake [33]: 3.47 % ID/g
- Drug uptake [34]: 5.41 % ID/g
- Drug uptake [35]: 4.37 % ID/g
- Drug uptake [36]: 2.69 %ID
- Drug uptake [37]: 4.26 % ID/g
- Drug uptake [38]: 4.14 % ID/g
- Drug uptake [39]: 2.87 % ID/g
- Drug uptake [40]: 13.1 % ID/g
- Drug uptake [41]: 7.67 % ID/g
- Drug uptake [42]: 3.37 %ID
- Drug uptake [43]: 22.9 % ID/g
- Drug uptake [44]: 4 % ID/g
- Drug uptake [45]: 7.45 % ID/g
- Drug uptake [46]: 3.05 % ID/g
- Drug uptake [47]: 2.71 % ID/g
- Drug uptake [48]: 2.68 % ID/g
- Drug uptake [49]: 2.18 % ID/g
- Drug uptake [50]: 2.94 % ID/g
- Drug uptake [51]: 3.04 % ID/g
- Drug uptake [52]: 9.32 % ID/g
- Kd [53]: 45.4 nM
- Drug uptake [54]: 3.41 % ID/g
- Drug uptake [55]: 2.62 % ID/g
- Drug uptake [56]: 14.4 % ID/g
- Drug uptake [57]: 1.82 % ID/g
Compound: CN(C)c1ccc(/N=N/c2nc3ccc(OCCOCCOCC[18F])cc3s2)cc1
